Data as given in patent publication US10220051B2, “Combination of DNA repair inhibition with bendamustine or gemcitabine in the treatment of cancer” (Institute for Cancer Research, priority 2012, dated 2019).
“Also recorded” adds a separate entry of the source.

Tests used:
Type in all cases: cell-based
[1] = tested on: Hela cells; test: Immunofluorescence of DNA damage foci (γ-H2AX, 53BP1, RPA)
Experimental: (§1) Immunofluorescence. Cells were grown on coverslips, treated with the indicated drugs, fixed and stained. To detect DNA damage induction and repair, antibodies against 53BP1 (Bethyl) and γ-H2AX (Upstate) were used with Alexa Fluor-conjugated secondary antibodies (Invitrogen). All cells were counter-stained with DAPI (Molecular probes). Images were captured using a 40× or 100× objective mounted on an inverted microscope (Eclipse TE2000S; Nikon) with a CCD camera (Photometrics Cascade 512F; Roper Scientific) powered by NIS Elements AR (version 3.10) software (Nikon). For quantitative analysis, individual nuclei were identified using DAPI staining and used to define region of interests (ROI), which were then transposed onto other channels. The sum intensity per nuclei from a minimum of 50 nuclei was averaged±SEM.

[2] = tested on: Hela cells; test: Cell viability MTS assay, Hela; conditions: for cell viability, BDM alone: 3.125-200 μM, 48 h continuous
Experimental: (§2) Cell viability and apoptosis assays. Hela cells were seeded into 96 well plates at a density of 1500 cells per well. Cells were treated with BDM (3.125-200 μM) for 24 h. After this time cells were additionally treated either with UCN-01 (100 nM), Chk2 inhibitor (100 nM) or Gö6976 (200 nM) for an additional 24 h. MTS reagent (CellTiter 96® AQueous Proliferation Assay, Promega) was added to each well for 4 h before the absorbance values at 490 nm was read. Experiments were conducted in triplicate, 3 independent times. Data presented are the average absorbance values, relative to control±SD. For apoptosis determination, cells seeded and treated as stated above were stained with Guava Nexin Reagent® (Millipore). Analysis was conducted using the Easycyte module and Cytosoft Software® (Millipore). Experiments were conducted 3 independent times, collecting 2000 events each time. Data shown is the average±SD.

[3] = tested on: Hela cells; test: Metaphase spreads
Experimental: Metaphase spreads. Mitotic cells were collected from untreated and bendamustine at 50 μM or 200 μM+UCN-01 (100 nM) treatments. For visualizing, cells were dropped onto a glass slides and stained with DAPI. Mitotic spreads were viewed and imaged using fluorescence microscopy. Images shown are representative of those observed.

[4] = tested on: Hela cells; test: Electron microscopy of mitotic chromosomes
Experimental: Electron microscopy. Hela cells were seeded into 6 cm dishes, synchronized with thymidine (2 mM) and treated with BDM 50 μM, 200 μM or gemcitabine (100 μM) for 18 h. Cells treated with UCN-01 (100 μM) for an addition 9 h to obtain mitotic cells were fixed with glutaraldehyde solution (3%, pH 7.4). Samples were prepared for electron microscopy analysis.

[5] = tested on: Hela cells stably expressing GFP:histone H2B; test: Time-lapse video microscopy of mitosis
Experimental: Time-lapse video microscopy. Hela cells stably expressing GFP:histone H2B were seeded into 6 well plates and synchronized in S phase using thymidine (2 mM). […] Where appropriate, UCN-01 (100 nM) was added to wells before being supplemented with HEPES (25 mM), layered with mineral oil (Sigma) and placed into a housing chamber which maintained the temperature at 37° C. Using a Nikon TE2000 microscope (Nikon) controlled by MetaMorph software (Molecular Devices), brightfield and fluorescent images were captured every 5 minutes for up to 48 h. Individual movies were analyzed manually and a minimum of 100 cells per treatment scored for the indicated measurements. For montages, selected frames representing different cell morphologies are presented.

[6] = tested on: Hela cells; test: Apoptosis assay (Guava Nexin Reagent); conditions: BDM 200 μM followed by Chk1 inhibitor; p<0.01 vs. control
Experimental: as §2

[7] = tested on: SK28 cells; test: SK28 clonogenic assay; conditions: SK28, concentration-dependent, quadruplicate
Experimental: (§3) Tests were conducted in quadruplicate.

[8] = tested on: SK28 cells; test: SK28 cell viability (MTS assay); conditions: SK28, concentration-dependent, quadruplicate
Experimental: as §3

[9] = tested on: PANC1, BXPC3, MCF-7, MDA-MB-435, OVCAR 5 and 10 cells; test: Cell cycle profile by FACS, panel of cancer cell lines; conditions: 24 h
Experimental: (§4) DNA content analysis via flow cytometry. Following indicated drug treatments, cells were fixed with 70% ethanol. For analysis, cells were stained with propidium iodide, RNase A and sodium citrate. Cells were incubated at 37° C. for 30 minutes before being analyzed using a Becton Dickinson single laser three-fluorescence FACScan flow analyzer and Cell Quest software (Becton Dickinson). DNA content was acquired from 10,000 events and FlowJo software was used to process the data.

[10] = tested on: Hela cells; test: Chk1 phosphorylation (Ser-345) in lysates
Experimental: Hela cells were treated for 24 or 48 h continuous treatment or of either 50 or 200 μM BDM or 24 h followed by 24 h in the absence of drugs. […] Quantification of the average fluorescence per nucleus is shown on the right. For γ-H2AX: *P=8.9×10^−28 vs. untreated 24 h; **P=2.1×10^−31 vs. untreated 24 h; †P=5.2×10^−45 vs. untreated 48 h. For 53BP1: *P=4.3×10^−20 vs. untreated 24 h; **P=4.2×10^−41 vs. untreated 24 h; †P=2.0×10^−52 vs. untreated 48 h. For RPA: *P=2.5×10^−16 vs. untreated 24 h; **P=2.8×10^−52 vs. untreated 24 h; †P=3.3×10-^58 vs. untreated 48 h. […] Total Chk1 and alpha tubulin were used to determine loading.

[11] = tested on: mouse embryonic fibroblasts (WT and TDG−/−); test: γ-H2AX immunofluorescence in WT and TDG−/− MEFs
Experimental: as §1

[12] = tested on: Hela cells; test: Cell cycle profile by FACS (DNA content), Hela
Experimental: as §4

[13] = tested on: U2932 B cell lymphoma cells; test: Cell cycle profile by FACS, U2932
Experimental: as §4

[14] = tested on: Hela cells; test: EdU incorporation (DNA synthesis); conditions: EdU 10 μM, 12 h
Experimental: EdU incorporation. Hela cells were treated with nocodazole for 14 h after which time mitotic cells were collected by mechanical shake-off. Cells were washed twice with medium and re-plated. BDM and EdU (10 μM) (Click-IT™ EdU imaging kit, Invitrogen) were added 2 h later, when the cells were fully adherent and still in G1, and incubated for an additional 12 h. Cells were fixed and stained according to the manufacturer's protocol. Quantification of EdU incorporation was performed as described for antibody detection.

[15] = tested on: Hela cells; test: Clonogenic assay, Hela; conditions: for colony formation relative to control (100%): washout, ~10 days
Experimental: Clonogenic assay. Hela cells were seeded into 6 well plates at a density of 1000 cells per well. Cells were treated for 24 h. Cells were then treated with and without UCN-01 (100 nM) for 3 h. All drugs were washed out and cells were left to grow for approximately 10 days. Cells were fixed using Acetic acid:methanol:H2O, (10:10:80), dried and stained with 0.4% crystal violet in 20% ethanol. Qualitative images of representative results are presented. For quantification, colonies were solubilized (1% acetic acid, 30% ethanol) and absorbance values at 595 nm were read. Values are expressed as a percentage relative to untreated cells, with untreated cells set to 100%±SD. Experiments were conducted in triplicate, three independent times. Student's two-tailed unpaired t test was conducted for statistics.

[16] = 50 μM BDM 24 h, then UCN-01 100 nM

O=c1cc(N2CCOCC2)oc2c(-c3cccc4c3sc3ccccc34)cccc12 [NU7441]
repair of BDM-induced damage (γ-H2AX) ([1]; 50 μM BDM + NU7441 10 μM, 48 h): did not block repair of BDM-induced damage

NC(=O)c1ccc2nc(-c3ccc(Oc4ccc(Cl)cc4)cc3)[nH]c2c1 [pharmacological inhibitor of Chk2]
sensitization to killing by BDM ([2]; any BDM concentration (3.125-200 μM), Chk2 inhibitor 100 nM): did not sensitize to killing by any concentration of BDM

CN[C@@H]1C[C@H]2O[C@@](C)([C@@H]1OC)n1c3ccccc3c3c4c(c5c6ccccc6n2c5c31)C(=O)N[C@@H]4O [UCN-01]
chromosome morphology in metaphase spreads ([3]; BDM 50 μM + UCN-01): no obvious gross structural defects
chromosome morphology in metaphase spreads ([3]; BDM 200 μM + UCN-01): extremely abnormal
chromosome ultra-structure (electron microscopy) ([4]; BDM 50 μM + UCN-01): intact chromosomes were clearly visualized
chromosome ultra-structure (electron microscopy) ([4]; BDM 200 μM + UCN-01): highly fragmented
sensitization to killing by BDM (viability) ([2]; 200 μM BDM 24 h, then Chk1 inhibitor 24 h): viability was significantly reduced
sensitization to killing by BDM ([2]; BDM up to 100 μM 24 h, then UCN-01 100 nM 24 h): did not sensitize
cell viability, UCN-01 alone ([2]; UCN-01 alone, any of the assays performed): no discernable effects on cell viability
effect on BDM-induced arrest [5, 16]: abrogated the arrest
time to start of mitotic entry after UCN-01 addition [5, 16]: 4 h
delay at metaphase (average) ([5]; 50 μM BDM + UCN-01, controls 37.5±16.7 minutes): 89 ± 64.7 min
percentage of apoptotic cells [6]: exhibited an increase in the percentage of apoptotic cells

Cn1c2ccccc2c2c3c(c4c5ccccc5n(CCC#N)c4c21)CNC3=O [Gö6976]
percentage of apoptotic cells [6]: exhibited an increase in the percentage of apoptotic cells

CON [MX, methoxyamine]
γ-H2AX foci, combination with BDM ([1]; 50 μM BDM + methoxyamine 6 mM, 48 h): significantly higher levels of γ-H2AX foci than BDM alone

C=CC1=C(C(=O)O)N2C(=O)[C@@H](NC(=O)/C(=N\OCC(=O)O)c3csc(N)n3)[C@H]2SC1 [cefixime, (6R,7R)-7-{[2-(2-amino-1,3-thiazol-4-yl)-2-(carboxymethoxyimino)acetyl]amino}-3-ethenyl-8-oxo-5-thia-1-azabicyclo[4.2.0]oct-2-ene-2-carboxylic acid]
clonogenic capacity / colony-forming ability [7]: reduce cell viability and clonogenic capacity; also recorded: reduction of clonogenic capacity
cell viability [8]: reduce cell viability

Cn1c(CCCC(=O)O)nc2cc(N(CCCl)CCCl)ccc21 [BDM, Bendamustine]
cell cycle arrest ([9]; 50 μM BDM): G2 arrest
cell cycle arrest ([9]; 200 μM BDM): S phase arrest
Chk1 phosphorylation (Ser-345) ([10]; 50 μM BDM, 48 h): no signal was observed
Chk1 phosphorylation (Ser-345) ([10]; 200 μM BDM, 48 h): detectable pChk1 was still present
Chk1 phosphorylation (Ser-345) ([10]; 24 h treatment): dose-dependently phosphorylated
γ-H2AX staining, TDG−/− MEFs versus wildtype MEFs ([11]; 10 μM BDM, 24 h): increased γ-H2AX staining
repair of DNA damage, TDG−/− MEFs versus wildtype MEFs ([11]; 48 h continuous treatment): reduced ability to repair the DNA damage
γ-H2AX, RPA and 53BP1 foci ([1]; 50 μM BDM 24 h, then 24 h after washout): reduced to levels comparable to untreated cells
γ-H2AX, RPA and 53BP1 foci ([1]; 50 μM BDM, 24 h): accumulated γ-H2AX, RPA and 53BP1 foci
γ-H2AX, RPA and 53BP1 staining ([1]; 50 μM BDM, 48 h continuous): reduced to control cells
γ-H2AX, RPA and 53BP1 foci ([1]; 200 μM BDM 24 h, after drug removal): foci persisted after drug was removed
γ-H2AX, RPA and 53BP1 foci ([1]; 200 μM BDM, 24 h): an increase in γ-H2AX, RPA and 53BP1
DNA damage foci ([1]; 200 μM BDM, 48 h continuous): not reduced
53BP1, RPA and γ-H2AX nuclear foci ([1]; dose dependence): increased in a dose-dependent manner
cell cycle profile ([12]; 50 μM BDM 24 h, then another 24 h with or without BDM): displayed a normal cell cycle profile
cell cycle arrest ([12]; 200 μM BDM, after washout or 48 h continuous): maintained after drug washout, or 48 h continuous treatment
cell cycle profile ([12]; Hela synchronized in G1, 200 μM BDM, 24 h): arrested in S phase
cell cycle profile ([12]; Hela synchronized in G1, 25-100 μM BDM, 24 h): accumulated as 4N DNA content indicating a G2/M delay
cell cycle arrest ([13]; 10 μM BDM): induced a G2 arrest
cell cycle arrest ([13]; 25 μM BDM): S phase arrest
cell cycle arrest ([13]; 50 μM BDM): induced an S phase arrest
EdU incorporation relative to untreated (100%) ([14]; 50 μM BDM): 98.0±4.1%
EdU incorporation relative to untreated (100%) ([14]; 200 μM BDM): 64.7±2.6%
cell viability, BDM alone [2]: did not reduce cell viability as compared to control treatment
cell viability, BDM alone ([2]; listed as bendamustine): not particularly effective at killing Hela cells
fate of cells forced into mitosis ([5]; 50 μM BDM + Chk1 inhibition): progress through mitosis relatively normally
percentage of cells entering mitosis ([5]; 50 μM BDM, over 24 h): caused a reduction in the percentage of cells entering mitosis
mitotic index ([5]; 200 μM BDM): reduced mitotic index
fate of cells forced into mitosis ([5]; 200 μM BDM + Chk1 inhibition): majority failing to exit and instead die in mitosis
mitotic figures ([5]; 200 μM BDM + Chk1 inhibition): highly abnormal
colony formation relative to control (100%) ([15]; 50 μM BDM 24 h): 87.8±11.2%
reduction in clonogenic survival ([15]; 200 uM BDM): 95%
colony formation relative to control (100%) ([15]; 200 μM BDM 24 h): 3.5±1.3%
